From patent publication US8288374B2, “Medicinal composition containing benzo[a]phenoxazine compound as the active ingredient for prevention or treatment of protozoal disease” (Hoshi University, priority 2008, dated 2012)
Values after ≈ are worked out from the molar mass of the structure shown. Where two headings read alike, the source gives them in different places. Blank lines part the entries; values can stand above or below the compound they belong to.

Legend:
[1] = tested on: Leishmania donovani (MHOM/ET/67/L82 strain); assay: Leishmania protozoa growth inhibition screening test; format: cell-based; conditions: Leishmania donovani; Table 5; amastigotes, 72 hours, Alamar Blue; read-out: 50% Growth inhibition concentration Leishmania donovani
Method: In the present experiment, Leishmania donovani (MHOM/ET/67/L82 strain) was used. Protozoa was subcultured in Syrian Golden hamster, from which an amastigote was obtained. In the experiment, SM medium supplemented with 10% heat-treated bovine fetal serum was used, which was adjusted to pH 5.4, and cultured in an atmosphere of 5% CO2 concentration, at 37° C.
The compounds of the present invention to be used in the present test and the positive control drug (miltefosine) were dissolved in DMSO to make a test solution of a predetermined concentration.
After adding a medium containing a predetermined number of protozoa to wells of a 96-well culture'plate and pre-treating, concentration of the amastigote was measured with CASY cell analysis system (Scharfe, Germany). Then, test solution containing a drug of a predetermined concentration or a drug-free DMSO was added. Test solutions were taken by duplicates.
After culturing the culture plate for 72 hours in an incubator, growth inhibition activity was tested. Test was conducted as follows. 10 μL of Alamar Blue aqueous solution was added to each well, and the resultant was further cultured for 2 hours. Next, the culture plate was placed on a fluorescent micro-plate reader (Spectramax Gemeni XS; US Molecular Device), radiated at an excited wavelength of 536 nm. Fluorescent intensity was measured at 588 nm, and infection rate of leishmania protozoa of the test solution added group and control was calculated.
(§1) Growth inhibition rate (%)={1−(b−a)/(c−a)}×100 • a: early infection rate • b: infection rate when test solution was added • c: infection rate of the control

[2] = tested on: Trypanosoma brucei rhodesiense (STIB 900 strain); assay: African trypanosome protozoa growth inhibition screening test; format: cell-based; conditions: read-out: 50% Growth inhibition concentration Trypanosoma brucei rhod.
Method: In the present experiment, protozoa of Tripanosoma brucei rhodensiense (STIB 900 Strain), a trypomastigote living in blood stream, was used. The medium used in the experiment was a MEM medium which was sterilized with a filter and supplemented with 25 mM N-2-hydroxyeihylpiperazine-2-ethansulfonic acid (HEPES), 1 g/L glucose, 1% MEM non-essential amino acid, 0.2 mM 2-mercaptoethanol, 2 mM sodium pyruvate, 0.1 mM hypoxanthine, and 15% heat-treated horse serum. The protozoa was cultured in an atmosphere of CO2 concentration 5%, at a temperature of 37° C.
The compounds of the present invention to be used in the present test and the positive control drug (melarsoprol) were dissolved in dimethylsulfoxide (DMSO) to make a test solution of a predetermined concentration.
A medium containing 8×10^3 protozoa, and a test solution containing a drug of a predetermined concentration of a drug-free DMSO were added to wells of a 96-well culture plate, and subsequently, medium was added so that the amount in each well becomes 100 μL. Test solutions were taken by duplicates.
After culturing the culture plate for 72 hours in an incubator, growth inhibition activity was tested. Test was conducted as follows. 10 μL of Alamar Blue aqueous solution was added to each well, and the resultant was further cultured for 2 hours. Next, the culture plate was placed on a fluorescent micro-plate reader (Spectramax Gemeni XS; US Molecular Device), radiated at an excited wavelength of 536 nm. Fluorescent intensity was measured at 588 nm, to calculate the trypanosome protozoa infected rate of the test solution added-group, and of the control group.
as §1

Rat L6 cells = assay: Growth inhibition test of rat L6 cells; format: cell-based; conditions: Table 1, 72 hours, Alamar Blue, read-out: 50% Growth inhibition concentration Cytoxicity L6
Method: Rat derived-L6 cells (rat skeletal myoblast cell) were used. A medium, RPMI1640 medium was supplemented so that L-glutamin (200 mM) is 1%, and fetal bovine serum 10%, and the medium was cultured under CO2 concentration 5%, at 37° C.
The compounds of the present invention and the control drugs to be used in the test were dissolved in DMSO, to make a test solution of a predetermined concentration.
Pre-culture was conducted and medium containing cells which have entered the logarithmic growth phase was taken to wells of a 96-well culture plate. Then, a test solution containing drug of a predetermined concentration or a drug-free DMSO was added. Test solutions were taken by duplicates.
Culture plate was cultured for 72 hours in an incubator, to test the growth inhibition activity. Test was conducted as follows. 10 μL of Alamar Blue aqueous solution was added to each well, and the resultant was further cultured for 2 hours. Next, the culture plate was placed on a fluorescent micro-plate reader (Spectramax Gemeni XS; US Molecular Device), radiated at an excited wavelength of 536 nm. Fluorescent intensity was measured at 588 nm, and residual rate of L6 cells of the test solution added group, and that of the control was calculated.
Growth inhibition rate (%)={(C−A)/(B−A)}×100 • A: Primary cell count • B: cell count of control, 3 days after • C: cell count of wells added with a sample, 3 days after 4. Determination of Drug Efficacy Against Chloroquine Resistant-Plasmodium

Plasmodium falciparum K1 = assay: Chloroquine resistant-Plasmodium falciparum growth inhibition screening test; format: cell-based; conditions: EC50 against rat L6 cells / EC50 against P. falciparum K1
Method: In the present experiment, protozoa of plasmodium falsiparum K1 strain was used. RPMI-1640 medium sterilized with a filter to which human serum was added to be 5%, was used in the experiment. Malarial parasites were cultured under 3% O2 concentration, 4% CO2 concentration, 93% N2 concentration, and at a temperature of 37° C.
The compounds of the present invention to be used in the present test and the positive control drug (chloroquine) were dissolved in DMSO to make a test solution of a predetermined concentration. Cultured malaria parasite infected-erythrocytes were collected by centrifugation, and diluted with non-infected erythrocyte so that the early infection rate was 0.15%. Hematocrit level at that time was 2.5%.
200 μL of malaria infected solution was added to wells of a 96-well culture plate, and adjusted by adding a test solution containing drug of a predetermined concentration or a drug-free DMSO. Test solutions were taken by duplicates.
[…] […] Radiation intensity was measured with a beta plate liquid scintillation counter (Wallac), and malarial parasite infection rates of the test solution added group and the control group were calculated.
Growth inhibition rate (%)={1−(b−a)/(c−a)}×100 • a: early infection rate • b: infection rate when test solution was added • c: infection rate of the control 3. Growth Inhibition Test of Rat L6 Cells
Antimalarial activity of a sample was estimated from EC50 values of the sample against chloroquine resistant-Plasmodium falciparum and rat L6 cells. […] It means that the larger the value of the selection toxity, the less the risk of the side effect is. Chemotherapy index=(EC50 value of a sample against rat L6 cells)/(EC50 value of a sample against chloroquine resistant-Plasmodium falsiparum)

[3] = tested on: Trypanosoma cruzi (Tulahuen C2C4 strain); assay: American trypanosome protozoa growth inhibition screening test; format: cell-based; conditions: Trypanosoma cruzi, Table 5, in rat L6 cells, 96 hours, CPRG/Nonidet, read-out: 50% Growth inhibition concentration Trypanosoma cruzi
Method: In the present experiment, amastigote and trypomastigote infected with rat L6 cells of protozoa of Trypanosoma cruzi (Tulahuen C2C4 starin) were used. As medium used in the test, RPMI 1640 medium containing L6 cells was supplemented so that L-glutamine (200 mM) become 1%, fetal bovine serum becomes 10%, which was cultured under CO2 concentration 5%, at 37° C.
The compounds of the present invention to be used in the present test and the positive control drug (benznidazole) were dissolved in DMSO to make a test solution of a predetermined concentration.
A medium containing 5×10^3 protozoa was added to wells of a 96-well culture plate, and pre-cultured for 48 hours. After replacing the medium, test solution containing drug of a predetermined concentration or a drug-free DMSO was added. Test solutions were taken by duplicates.
After culturing the culture plate in an incubator for 96 hours, growth inhibition activity was tested. Test was conducted as follows. 50 μL of CPRG/Nonidet was added to each well, and allowed to rest for 2 to 6 hours. Next, the culture plate was placed on a fluorescent micro-plate reader. The absorbance was measured at 540 nm, and the trypanosome infection rate of the test solution added group and control group were calculated.
as §1

Structure (SMILES): CCN(CC)c1ccc2nc3c4ccccc4c(=Nc4nc5ccc(OC)cc5s4)cc-3oc2c1 [Compound 1M, N,N-Diethyl-5-(6-methoxybenzo[d]thiazol-2-ylimino)-5H-benzo[a]phenoxazin-9-amine]
EC50 [1]: 13.8 µg/mL (≈ 28.7 µM) | melting point: 197 to 198 °C | EC50 ([2]; Table 5, 72 hours, Alamar Blue): 40 µg/mL (≈ 83.2 µM) | EC50 (Rat L6 cells): 80.6 µg/mL (≈ 168 µM) | Selective toxicity (Plasmodium falciparum K1): 1492 | EC50 [3]: > 30 µg/mL

Structure (SMILES): CCN(CC)c1ccc2nc3c4ccccc4c(=Nc4cc(C)on4)cc-3oc2c1 [Compound 1J, N,N-Diethyl-5-(5-methylisoxazol-3-ylimino)-5H-benzo[a]phenoxazin-9-amine]
EC50 [1]: 1.86 µg/mL (≈ 4.67 µM) | melting point: 195 to 196 °C | EC50 ([2]; Table 5, 72 hours, Alamar Blue): 11.8 µg/mL (≈ 29.6 µM) | EC50 (Rat L6 cells): 36.8 µg/mL (≈ 92.4 µM) | Selective toxicity (Plasmodium falciparum K1): 7360 | EC50 [3]: 21.8 µg/mL (≈ 54.8 µM)

Structure (SMILES): O=C(Cn1ccnc1[N+](=O)[O-])NCc1ccccc1 [Benznidazole, benznidazole, reference compound]
EC50 [3]: 0.225 µg/mL (≈ 0.866 µM)

EC50 [1]: 0.114 µg/mL (≈ 0.278 µM)
Structure (SMILES): CCCCCCCCCCCCCCCCOP(=O)([O-])OCC[N+](C)(C)C [Milfotesine, miltefosine, reference compound]

Structure (SMILES): CCN(CC)c1ccc2nc3c4ccccc4c(=Nc4ncccn4)cc-3oc2c1 [Compound 1L, N,N-Diethyl-5-(pyrimidin-2-ylimino)-5H-benzo[a]phenoxazin-9-amine]
EC50 [1]: 0.662 µg/mL (≈ 1.67 µM) | melting point: 208 to 210 °C | EC50 ([2]; Table 5, 72 hours, Alamar Blue): 0.804 µg/mL (≈ 2.03 µM) | EC50 (Rat L6 cells): 5.4 µg/mL (≈ 13.7 µM) | Selective toxicity (Plasmodium falciparum K1): 2700 | EC50 [3]: 1.78 µg/mL (≈ 4.5 µM)

Structure (SMILES): CCN(CC)c1ccc2nc3c4ccc(Br)cc4c(=Nc4ccncc4)cc-3oc2c1 [Compound 1G, 3-Bromo-N,N-diethyl-5-(pyridin-4-ylimino)-5H-benzo[a]phenoxazin-9-amine]
EC50 [1]: 19.1 µg/mL (≈ 40.4 µM) | melting point: 269 to 271 °C | EC50 ([2]; Table 5, 72 hours, Alamar Blue): 61 µg/mL (≈ 129 µM) | EC50 (Rat L6 cells): > 90 µg/mL | Selective toxicity (Plasmodium falciparum K1): >18000 | EC50 [3]: > 30 µg/mL

Structure (SMILES): Nc1nc(N)nc(Nc2ccc([As]3SCC(CO)S3)cc2)n1 (stereo not drawn) [Melarsoprol, melarsoprol, reference compound]
EC50 ([2]; 72 h): 0.0024 µg/mL

Structure (SMILES): CCN(CC)c1ccc2nc3c4ccccc4c(=Nc4nc5ccc(Cl)cc5s4)cc-3oc2c1 [Compound 1I, 5-(6-Chlorobenzo[d]thiazol-2-ylimino)-N,N-diethyl-5H-benzo[a]phenoxazin-9-amine]
EC50 [1]: 19.6 µg/mL (≈ 40.5 µM) | melting point: 229 to 231 °C | EC50 ([2]; Table 5, 72 hours, Alamar Blue): 44.8 µg/mL (≈ 92.4 µM) | EC50 (Rat L6 cells): > 90 µg/mL | Selective toxicity (Plasmodium falciparum K1): >210 | EC50 [3]: > 30 µg/mL

Structure (SMILES): CCN(CC)c1ccc2nc3c4ccccc4c(=Nc4ncc(Cl)cc4Cl)cc-3oc2c1 [Compound 1K, 5-(3,5-Dichloropyridin-2-ylimino)-N,N-diethyl-5H-benzo[a]phenoxazin-9-amine]
EC50 [1]: 8.13 µg/mL (≈ 17.5 µM) | melting point: 192 to 193 °C | EC50 ([2]; Table 5, 72 hours, Alamar Blue): 38.6 µg/mL (≈ 83.3 µM) | EC50 (Rat L6 cells): 83.1 µg/mL (≈ 179 µM) | Selective toxicity (Plasmodium falciparum K1): 2866 | EC50 [3]: > 30 µg/mL
